# Where two headings read alike, the source gives them in different places.
# Legend:
# L02 cells = assay: MTT assay on normal liver cells L02; type: cell-based; settings: Homo sapiens
# Protocol: The antiproliferative activity of the target compounds against a normal L02 cell line and the three different human cancer cell lines viz. colorectal (HCT-116), liver (BEL-7402) and liver (HepG2) were evaluated using a standard MTT-based colorimetric assay. All cell lines were obtained from the Key Laboratory of Natural Resources and Functional Molecules of the Changbai Mountain (Yanbian University, Jilin, China) and maintained in Dulbecco’s modified Eagle’s medium (DMEM) and RPMI Media 1640 (RPMI1640), supplemented with 10% fetal bovine serum (FBS) at 37 °C in a humidified atmosphere containing 5% CO2.
# Cells were plated in 96-well plates at appropriate densities to ensure exponential growth throughout the experimental period (9 × 10^3 cells per well) and then allowed to adhere for 24 h. Cells were then treated for 48 h with four serial concentrations (1, 10, 50 and 100 µM) of each compound. […] After 48 h of incubation, 10 µL of MTT solution was added to each well to a final concentration of 2 mg/mL. Plates were then incubated for a further 4 h. After incubation, the MTT solution was removed and 150 µL of DMSO was added to each well for coloration. The plates were shaken vigorously for 10 min at room temperature to ensure complete solubilization. The optical density (OD) was read on a microplate reader (ELx800, BioTek, Highland Park, Winooski, VT, USA) at a wavelength of 492 nm and the data were subsequently analyzed. The percentage of cell growth inhibition was calculated from the following equation: Inhibitory rate (%) = [(1 − (ODtreated-ODblank)/(ODcontrol-ODblank)] × 100.(1)
# HCT-116 cells = assay: Cell cycle analysis by flow cytometry (PI); type: cell-based, human; settings: 24 h; for proportion of cells in the S phase: control 18.64%; for proportion of cells in the G1 phase: control 70.67%
# Protocol: HCT-116 cells were plated in 6-well plates (5.0 × 10^5 cells per well) and incubated at 37 °C for 24 h. Exponentially growing cells were then incubated with compound 5d at 5 and 15 µM. After 24 h, untreated cells (control) or cells treated with compound 5d were centrifuged at 1000 rpm for 10 min and then fixed in 70% ethanol at −20 °C for at least 24 h. The cells were subsequently resuspended in phosphate-buffered saline (PBS) containing 0.1 mg/mL of RNase A and 5 µg/mL propidium iodide (PI). The cellular DNA content for the cell cycle distribution analysis was measured by flow cytometry using a FACSCalibur flow cytometer with Cell Quest software (Becton-Dickinson, Franklin Lakes, NJ, USA), plotting at least 30,000 events per sample. The percentage of cells in the G1, S and G2 phases of the cell cycle were determined using the ModFit LT version 4.0 software package (Verity Software, Topsham, ME, USA).
structure (smiles),measurement,setting,value
"Cc1ccc(-n2cc(CNC(=O)COC(=O)[C@]3(C)CCC[C@@]4(C)[C@@H]5CC[C@@]6(C)C[C@]5(CC[C@@H]43)CC6=O)nn2)cc1 [Compound 5d, 2-oxo-2-(((1-(p-tolyl)-1H-1,2,3-triazol-4-yl)methyl)amino)ethyl(4R,4aS,6aR,9S,11aR,11bS)-4,9,11b-trimethyl-8-oxotetradecahydro-6a,9-methanocyclohepta[a]naphthalene-4-carboxylate]",IC50,"L02 cells; normal cell line, Table 3, read-out: (IC50, μM) L02",161 ± 1.96 µM
same,IC50,"L02 cells; normal liver cells, 48 h, MTT, Table 2, read-out: IC50 Values (μM) L02",> 100 µM
same,proportion of cells in the S phase,HCT-116 cells; 5 μM,25.70%
same,proportion of cells in the G1 phase,HCT-116 cells; 5 μM,51.67%
same,proportion of cells in the S phase,HCT-116 cells; 15 μM,42.31%
same,proportion of cells in the G1 phase,HCT-116 cells; 15 μM,41.32%
